According to patent publication US20060247156A1, “Use of neuropeptides for ligament, cartilage, and bone healing” (priority 2004, published 2006):
Where “and” joins values, the source holds several entries; their conditions need not be identical. Equal entries are not always repeated. Entries after “also recorded” stand apart in the source; their conditions may differ.

Columns and labels:
[1] = tested on: MCL neuropeptide concentration (SP, CGRP, NPY, VIP); assay: Neuropeptides in MCL after capsaicin (RIA, immunofluorescence); type: in vivo, rat
Experimental: (§1) Injections were made into a site between the scapulae. […] Into Group 2 (n=6 animals) and Group 4 (n=9 animals), a similar volume of sterile saline was injected via the same method. All other medications were given as in the treated groups. […] Contralateral legs were used as sham controls.
Neuropeptide Radioimmunoassay: Four MCLs from all groups were used for quantification of neuropeptide concentrations via RIA. MCLs were homogenized using a mortar and pestle.
Each ligament was then incubated in two […] appropriately tagged (AMCA or Rhodamine; Chemicon, Temecula, Calif.) secondary antibodies.

intact and healing MCLs = assay: Intact and healing MCL after in vivo capsaicin: mechanical testing, healing, histomorphology; design: species or system rat
Experimental: In Group 2, control rats (n=6) were injected with an equal volume of 0.9% saline. […] These rats were also divided into two groups. […] After 3 days of treatment, both groups underwent a surgical rupture of one MCL. Contralateral MCLs were used as sham controls. All rats were maintained in their normal cage environment for 10 days. Then, they were sacrificed as noted above. Femur-MCL-tibia (FMT) complexes were then harvested and tested as above.
as §1, with “scapulae. […] Bupivicaine was also administered subcutaneously at the site of the capsaicin injection.” for “scapulae.”, “groups. There were no signs of infection, discomfort, or unusual behavior in the treated rats.” for “groups.”
Mechanical Testing: Mechanical testing was performed as described in the previous examples. Briefly, animal hind limbs from all groups (n=4 Group 1; n=4 Group 2; n=4 Group 3; n=4 Group 4) were disarticulated at the hip joint and stored at −80° C. until testing. On the day of testing, MCLs including intact femoral and tibial bone sections were excised for ex vivo testing. Ligament thickness and width was measured optically, and MCL area was estimated with elliptical geometry. For strain measurements, optical markers were placed onto the ligament tissue near the insertion sites. A small preload of 0.1N was applied to the ligaments in order to obtain a uniform starting point. The ligaments were then preconditioned to 1% strain for 10 cycles. After preconditioning, ligaments were pulled to failure at a rate of ˜10% per second. Tissue displacement was obtained using video dimensional analysis using equations (1) and (2) infra. The mechanical properties that were examined in this study were maximum force, ultimate stress, strain at failure, elastic modulus, and area. Statistical analysis was performed using an unpaired t-test (p=0.05) to analyze differences between the control and treatment group.
(§2) Ligaments were immediately fixed in formalin fixative for three days at room temperature. Specimens were embedded in paraffin, sectioned (6 μm), mounted on slides, and stained with hematoxylin and eosin (H&E).

MCL [2] = assay: MCL organ culture with capsaicin, mechanical testing; design: species or system rat
MCL [3] = conditions: cited from earlier work
healing MCL = assay: Local neuropeptide delivery to normally innervated healing MCL: mechanical testing, histomorphology; type: in vivo, rat
Experimental: Animal Model and Surgery: Forty female Wistar rats (200-250 g) were divided into five groups.
All rats underwent bilateral MCL rupture. Neuropeptides were then delivered ruptured MCLs unilaterally. Neuropeptide infused mini-osmotic pumps (Alzet Corp.) were implanted subcutaneously into the back of each rat. A small catheter running from the pump was run to an intramuscular space above the MCL and was secured.
Mechanical Testing: Mechanical testing was performed as described in Chapter 2. Briefly, animal hind limbs from all groups (n=5 for all groups) were disarticulated at the hip joint and stored at −80° C. until testing. On the day of testing, MCLs including intact femoral and tibial bone sections were excised for ex vivo testing. Ligament thickness and width was measured optically, and MCL area was estimated with elliptical geometry. For strain measurements, optical markers were placed onto the ligament tissue near the insertion sites. A small preload of 0.1N was applied to the ligaments in order to obtain a uniform starting point. The ligaments were then preconditioned to 1% strain for 10 cycles. After preconditioning, ligaments were pulled to failure at a rate of 10% per second.
Tissue displacement was obtained using video dimensional analysis using equations (1) and (2) supra. The mechanical properties that were examined in this study were maximum force, ultimate stress, strain at failure, elastic modulus, and area. Statistical analysis was performed using paired ttests to compare each treated MCL to its contralateral control (alpha=0.05).
as §2

[4] = tested on: ruptured MCL of a surgical sympathectomy (SS) rat; assay: Local neuropeptide delivery to ruptured MCL of surgical sympathectomy (SS) rats: mechanical testing, histomorphology; type: in vivo
Source text: Surgical Procedure: Thirteen female Wistar rats (306 g to 339 g) were divided into two groups: surgical sympathectomy (SS) or sham control. All rats were anesthetized with isofluorane as described in Example 1. A transperitoneal approach was used. The lower abdomen was shaved and prepared for surgery. A skin incision approximately 25 mm long was made. Fascia and abdominal muscle were incised. Abdominal organs were displaced. With the aid of a dissecting microscope, fascia surrounding the deep muscle tissue was separated (with minimal disruption to the muscle tissue) to expose the post-ganglionic sympathetic nerves. The L1-4 nerves were isolated and transected (with removal of a 5 mm segment of the nerves) in the surgical sympathectomy group only. In both groups, the deep muscle tissue was returned to its initial position and abdominal organs were replaced. Abdominal muscles and skin were closed in two layers with a 3-0 or 4-0 continuous dexon suture. Rats from each group (n=4 SS; n=3 controls) then underwent a complete surgical rupture of the MCL to one knee. The contra-lateral knee underwent sham surgery. […] Two weeks post-surgery, rats were sacrificed using an overdose of pentobarbitone (150 mg/kg).
Local delivery of NPs and NP inhibitors is important to identify the specific roles of individual NPs on healing tissues. An animal model for the local delivery of NPs has been developed and is presented in this Example. Briefly, NP infused mini-osmotic pumps were implanted subcutaneously into the back of rats. A small catheter running from the pump to an intramuscular space above the MCL was secured to the rat.
To test whether autonomic NPs improve healing in SS-ruptured MCLs, three female Wistar rats (193 g to 204 g) were given VIP locally to the MCL. Vasoactive intestinal peptide (75 pg/μl) was infused into a mini-osmotic pump and was delivered to a ruptured MCL of a surgical sympathectomy (SS) rat (see surgical procedure above). Within minutes of surgical intervention, all rats recovered and had normal movement and behavior (grooming, feeding, etc.). […] The results are presented graphically in FIG. 6.
Animal Model and Surgery: Thirty-seven female Wistar rats (199-298 g) were divided into five groups. […] Rats that were designated to receive SP or CGRP underwent bilateral femoral nerve transection (see previous examples). Rats that were designated to receive NPY, VIP, or a combination of NPY and VIP underwent bilateral surgical sympathectomy. Following surgical nerve transection, each rat also underwent bilateral MCL rupture. Neuropeptides were then delivered ruptured MCLs unilaterally. Neuropeptide infused mini-osmotic pumps (Alzet Corp.) were implanted subcutaneously into the back of each rat. A small catheter running from the pump was run to an intramuscular space above the MCL and was secured. To ensure that neuropeptides are delivered directly to the MCL, rhodamine labeled SP was delivered via a catheter to the MCL (n=2 rats).
Within minutes of surgical intervention, all rats recovered and had normal movement and behavior (grooming, feeding, etc.). To test whether autonomic NPs improve healing in SS ruptured MCLs, seven rats were given VIP, seven rats were given NPY, and seven rats were given a combination of VIP and NPY. […]
Mechanical Testing: Mechanical testing was performed as described in the preceding examples. Briefly, animal hind limbs from all groups (n=4 for all groups) were disarticulated at the hip joint and stored at −80° C. until testing. On the day of testing, MCLs including intact femoral and tibial bone sections were excised for ex vivo testing. Ligament thickness and width was measured optically, and MCL area was estimated with elliptical geometry. For strain measurements, optical markers were placed onto the ligament tissue near the insertion sites. […]

[5] = tested on: bovine articular chondrocytes; assay: Bovine chondrocytes glycosaminoglycan assay (DMMB); type: cell-based; conditions: NPY 50 ng/ml; Day 3 of treatment; individual wells
Experimental: (§3) Cartilage chunks were then digested at 37° C. in DMEM containing 0.05% hyaluronidase for 30 minutes, followed by 0.05% collagenase digestion overnight. The digests were filtered through 40-micron nylon mesh and centrifuged at 600×g for 20 minutes. The cell pellets were then resuspended in DMEM and counted using a hemacytometer.
(§4) Cells were plated at 1×10^5 cells/well in 12-well plates (n=9) for proteoglycan assays and at 2×10^4 cells/well in 96-well plates (n=16) for proliferation assays. The culture volumes were 1 ml/well in 12-well plates and 100 μl/well in 96-well plates.
(§5) The plates were incubated at 37° C. in a humidified CO2 incubator for 3 days to allow the cells to recover from the harvesting procedure.
(§6) On Day 3 of treatment, 20 μl of CellTiter 96® AQueous One Solution Cell Proliferation Assay (Promega Corporation, Madison, Wis.) was added to each well of the 96-well cultures for 60 minutes, and cells in the 12-well plates were digested with 0.125 units of papain/well overnight. After the 60-minute incubation, the absorbance of the color generated by the cells in the 96-well plates was measured at wavelength 490 nm.
Following papain digestion of the cultures in 12-well plates, the amount of glycosaminoglycan (representative of proteoglycans) in each well was measured using the dimethylmethylene blue (DMMB) dye-binding assay. The results were statistically analyzed and plotted.

[6] = tested on: bovine articular chondrocytes; assay: Bovine chondrocytes proliferation assay (CellTiter 96 AQueous One); type: cell-based; conditions: CGRP 100 pg/ml, NPY 50 ng/ml, SP 500 pg/ml, VIP 1 ng/ml
Experimental: as §3, §4, §5, §6

[7] = tested on: Bovine nucleus pulposus cells; assay: Bovine nucleus pulposus (intervertebral disc) cell proliferation; type: cell-based; conditions: CGRP 10 ng/ml, NPY (mcg/ml, SP 5 mcg/ml); day 1, day 2, day 3
Experimental: Bovine calf spines and femoral condyles were obtained from a slaughterhouse and freshly transported to the laboratory. Nucleus pulposus tissue was carefully dissected, avoiding annular and endplate cartilage tissues, from each disc. Articular cartilage from femoral condyles was dissected in the same manner. […] Cells were harvested by overnight digestion with hyaluronidase and collagenase, followed by filtration. Cells were plated at a density of 1×10^5 cells/ml and incubated at 37° C. in 5% CO2 and 95% air in the presence of each neuropeptide or media only (control). At various time points in growth, cells were collected for proliferation and glycosaminoglycan (GAG) production assays. Varying concentrations of NPs were examined.
Well established colorimetric and luminescent assays (CellTiter 96® AQueous Non-radioactive Cell Proliferation and CellTiter-Glo® Luminescent Cell Viability Assays, Promega, Madison, Wis.) were used to quantify the effect of each NP on cell proliferation. In addition, corresponding cell cultures during growth were digested with papain to release glycosaminoglycans (GAGs). Dimethyl methylene blue (DMMB) colorimetric assays were used to quantify the amount of GAGs in each culture.
Multiple samples for test and control groups were performed simultaneously. Statistical analyses using one way analysis of variance (ANOVA) with large degrees of freedom (n=12 for GAG assays; n=24 for proliferation assays) were performed to establish the significance of differences between test groups and control groups for each day of growth in culture.
The effect of neuropeptides on intervertebral disc cell proliferation was examined in order to elucidate further the pathophysiology of degenerative disc disease. Bovine nucleus pulposus cells were incubated with the same neuropeptides.

[8] = Group 3: ruptured MCL, capsaicin 50 mg/kg/day for three days, two weeks of healing
[9] = second study, Group 3: capsaicin 50 mg/kg/day x3 days, ruptured MCL, healing
[10] = Example 7: normally innervated rats, bilateral MCL rupture, mini-osmotic pump (SP 75, CGRP 10, NPY 65, VIP 100 pg/100 μl), two weeks of healing

## COc1cc(CNC(=O)CCCC/C=C/C(C)C)ccc1O [capsaicin]
[1]; Group 1: intact MCL, capsaicin 50 mg/kg/day s.c. for three days, 10 days after last injection
  CGRP concentration in MCL (RIA): 0.04 pmol/g
[1]; [8]
  CGRP concentration in MCL (RIA): 0.042 pmol/g
  NPY concentration in MCL (RIA): 3.09 pmol/g
  SP concentration in MCL (RIA): 0.09 pmol/g
  VIP concentration in MCL (RIA): 1.07 pmol/g
Intact and healing MCLs; capsaicin treated, two weeks of healing
  histomorphology (H&E) of healing MCL: hypercellular and disorganized
Intact and healing MCLs; capsaicin-treated rats with MCL rupture
  healing of MCL and skin wounds (in words): one MCL failed to heal; also recorded: healed poorly
Intact and healing MCLs; first study: capsaicin 50 mg/kg, MCL rupture after 3 days of treatment, n=3
  ultimate stress of the ruptured ligament: 4.6 MPa
Intact and healing MCLs; first study: capsaicin 50 mg/kg, intact MCL, 10 days
  ultimate stress of intact MCLs: substantially reduced
Intact and healing MCLs; following initial recovery from capsaicin injection
  abnormalities in movement, body weight, or behavior: No abnormalities
Intact and healing MCLs; second study, Group 1 vs Group 2, intact MCL
  failure force, ultimate stress, failure strain, area, and elastic modulus of intact MCL: not significantly changed
Intact and healing MCLs; [9]
  failure force: 4.5±2.7 N
  ultimate stress: 2.7±1.9 MPa
MCL [2]; organ culture 10 days with capsaicin in media
  ultimate stress: 66.0±4.7 MPa
MCL [2]; organ culture with capsaicin-supplemented media
  ultimate force: no changes

## insulin-like growth factor-1
MCL [3]; Provenzano et al., following 30 days of delivery
  healed strength relative to intact ligament: 66%

## neuropeptide Y [NPY]
Healing MCL; Example 7, two weeks of healing
  histomorphology (H&E) of healing MCL: less of an effect on tissue alignment
Healing MCL; [10]
  failure force: 7.7±1.1 N
  ultimate stress: 5.6±2.2 MPa
[4]; Example 6: SS rats, bilateral MCL rupture, mini-osmotic pump (NPY 65 pg/100 μl; VIP 100 pg/100 μl; or both), two weeks of healing
  failure force: 12.2±0.9 N
[4]; SS rats, VIP or NPY, two weeks
  histomorphology (H&E) of healing MCL: more aligned
[4]; neuropathic ruptured MCL, two weeks of healing
  healing response of MCLs relative to intact controls: 70%
[5]
  Glycosaminoglycan Assay: 7.783 μg/dish and 9.327 μg/dish and 6.2383 μg/dish and 8.055 μg/dish and 7.964 μg/dish and 5.148 μg/dish and 5.784 μg/dish and 7.874 μg/dish and 8.328 μg/dish
[6]
  proliferation of articular chondrocytes compared to controls (in words): stimulate proliferation
[7]
  disc cell proliferation compared to controls: stimulate disc cell proliferation

## platelet-derived growth factor [PDGF]
MCL [3]; Woo et al., after 6 weeks of healing
  healed MCL strength relative to intact ligament strength: 50%
